Format in all cases: cell-based
The subject of experiment [1] is T-Rex 293 cells having increased expression of estrogen receptor alpha protein. The experiment is described as follows: Cellular growth inhibition assay, T-Rex 293 cells, (+) doxycycline. As to conditions: T-REx-293, 72 h. The method, then: (§1) Exemplary compounds were tested for the ability to inhibit the proliferation of the following types of cells: (i) a T-Rex 293 cell line having increased expression of estrogen receptor alpha protein from exposure to doxycycline and (ii) a T-Rex 293 cell line lacking increased expression of estrogen receptor alpha protein.
(§2) The following types of cells were prepared for this experiment: (i) a T-Rex 293 cell line having increased expression of estrogen receptor alpha protein from exposure to doxycycline and (ii) a T-Rex 293 cell line lacking increased expression of estrogen receptor alpha protein. The ability of the test compounds to inhibit proliferation of the foregoing cell types was evaluated according to the procedures set forth below.
(§3) The doxycycline-inducible estrogen receptor alpha protein expressing cell line was established using the following protocol: T-Rex 293 cells were purchased from Invitrogen (Cat #R71007) and transfected using Lipofectamine 2000 with the wild-type estrogen receptor alpha protein sequence cloned into the pcDNA4/TO vector. Transfected cells were selected using 400 μg/mL Zeocin (Invitrogen Cat #R25001). Following selection, single clones were raised and maintained in Dulbecco's Modified Eagle Medium (DMEM) supplemented with 10% w/w Tetracycline-free fetal bovine serum (FBS) and 250 μg/mL Zeocin. Clones were analyzed for expression of estrogen receptor alpha protein in the presence and absence of 3 ng/mL doxycycline (Sigma Cat #D9891), and a single doxycycline-inducible clone (hereinafter “SC”) was selected for use in downstream assays.
(§4) The SC cells were seeded on poly-D-lysine coated, black clear-bottom 384-well plates at 2500/well, in 25 μL Phenol Red Free Dulbecco's Modified Eagle Medium (DMEM) supplemented with 10% w/w charcoal-dextran treated fetal bovine serum (FBS) and 1% w/w pen-strep, with or without 3 ng/mL doxycycline. Pen-Strep is a commercially available mixture of penicillin G and streptomycin, which is used in mammalian cell culture media to prevent bacterial contamination. Phenol Red Free Dulbecco's Modified Eagle Medium (DMEM) supplemented with 10% w/w charcoal-dextran treated fetal bovine serum (FBS) and 1% w/w pen-strep, with or without 3 ng/mL doxycycline is herein referred to as Treatment Medium. Following seeding of cells in the plates, the plates were spun at 300×g for 30 seconds, then equilibrated to room temperature for 30 minutes, and then deposited in a humidified tissue culture incubator maintained at 37° C. with 5% CO2.
(§5) At 24 hours after seeding of the cells, dilutions of test compound were prepared in DMSO and dissolved in Treatment Medium, to achieve a final DMSO concentration of 0.5% w/w, thereby providing the Test Compound Solution. A 25 μL aliquot of the Test Compound Solution was added to cells in the well plates. An equal volume of a solution containing DMSO and Treatment Medium was used as a negative control. Following treatment of cells with Test Compound Solution or said equal volume of a solution containing DMSO and Treatment Medium, the plates were spun at 300×g for 30 seconds, and then left in an incubator for 72 hours.
(§6) At the end of the treatment duration, cell viability was quantified with CellTiter-Glo 2.0 reagent (Promega Cat #G9243). For this purpose, plates were equilibrated to room temperature for 30 minutes, and then 25 μL of CellTiter-Glo 2.0 reagent was added to cells in the plate wells. Plates were then agitated on a shaker for two minutes at 500 rpm and subsequently incubated at room temperature for 10 minutes. Following incubation, the plates were spun at 3000×g for 30 seconds, then sealed with an optical adhesive cover, and luminescence readings were measured with an EnVision Plate Reader (Perkin Elmer).
(§7) Data was normalized using zero luminescence for baseline. […]

For experiment [2], the system named is T-Rex 293 cells lacking increased expression of estrogen receptor alpha protein. In words: Cellular growth inhibition assay, T-Rex 293 cells, (−) doxycycline. As to conditions: T-REx-293, 72 h. The method, then:
as §1, §2, §3, §4, §5, §6, §7

The test system of experiment [3] is MCF7 cells (ATCC #HTB-22). In words: Cellular growth inhibition assay, MCF7 cells purchased from ATCC. The conditions noted are these: Homo sapiens, MCF7, 144 h. The protocol:
Exemplary compounds were tested for the ability to inhibit the proliferation of MCF7 cells.
MCF7 cells (ATCC #HTB-22 or ECACC #86012803) were cultured in RPMI 1640 medium supplemented with 10% heat-inactivated fetal bovine serum, 1% pen-strep, and 0.2 U/ml insulin. Cells were seeded in 25 μL of RPMI 1640 medium supplemented with 10% heat-inactivated fetal bovine serum, 1% pen-strep, 0.2 U/ml insulin in poly-D-lysine treated, black clear-bottom 384-well plates at 225 cells/well for MCF7 cells purchased from ECACC or 1,500 cells/well for MCF7 cells purchased from ATCC. Following seeding, plates were spun at 300×g for 30 seconds and cultured at 37° C. with 5% CO2 in a humidified tissue culture incubator.
At 24 hours after seeding, compounds were titrated in 100% DMSO and diluted in RPMI 1640 medium supplemented with 10% heat-inactivate fetal bovine serum, 1% pen-strep, and 0.2 U/ml insulin. A 25 μL aliquot of the compound/media mixture was added to cells, bringing the total volume in each well to 50 μL. An equal volume of DMSO without compound was used as a negative control. After treatment, plates were spun at 300×g for 30 seconds, then cultured at 37° C. with 5% CO2 for six days in a humidified tissue culture incubator.
On Day 6 of treatment, cell viability was quantified with CellTiter-Glo 2.0 reagent (Promega). Plates were equilibrated to room temperature for 30 minutes, then 25 μL of CellTiter-Glo 2.0 reagent was added to cells, bringing the total volume in each well to 75 μL. After reagent was added, plates were mixed on a shaker for two minutes at 500 rpm and then incubated at room temperature for 10 minutes. Following incubation, plates were spun at 3,000×g for 30 seconds, sealed with an optical adhesive cover, and luminescence readings were measured with an EnVision Plate Reader.
Data was normalized to 0 luminescence for baseline. A four-parameter, non-linear regression curve fit was applied to dose-response data in GraphPad Prism data analysis software to determine the half maximal growth inhibitory concentration (GI50) for each compound.

[4] abbreviates: Table 7-A, T-Rex 293 cells with doxycycline (increased ERα expression), 72 hours, CellTiter-Glo, read-out: (+) Dox GI50.
Where [5] appears, read: Table 7-A, T-Rex 293 cells without doxycycline (lacking increased ERα expression), 72 hours, CellTiter-Glo, read-out: (−) Dox GI50.
The mark [6] stands for this setting: Table 8-A, MCF7 cells purchased from ATCC, six days, CellTiter-Glo, read-out: GI50.
Setting [7] is: T-Rex 293 cells with doxycycline-induced ERα expression, 72 hours, CellTiter-Glo 2.0, read-out: (+) Dox TRex ERa (GI50).
Where [8] appears, read: T-Rex 293 cells without doxycycline, 72 hours, CellTiter-Glo 2.0, read-out: (−) Dox TRex ERa (GI50).
Where [9] appears, read: read-out: (+) Dox TRex ERa (GI50).
[10] abbreviates: read-out: (−) Dox TRex ERa (GI50).

What is called GI50 is the concentration at which growth is held to half of that of the control.

Read-outs that look alike come from different tables or passages of the source.

On to `COc1cc(N2CCN(CC3(O)CCN(c4ccc(C5=N[C@@H](C)c6nnc(C)n6-c6sc(C)c(C)c65)cc4)CC3)CC2)c(F)cc1[C@@H]1c2ccc(O)cc2CC[C@@H]1c1ccccc1` (single isomer, unassigned) [III-311], for which the concentration for 50% growth inhibition (GI50) is under 50 nM in experiment [1] (setting [4]), 500 to 2500 nM in experiment [2] (setting [5]) and under 50 nM in experiment [3] (setting [6]).
Turning to `COc1cc(N2CCN(CC3(O)CCN(c4ccc(C5=N[C@@H](C)c6nnc(C)n6-c6sc(C)c(C)c65)cc4)CC3)CC2)c(F)cc1[C@H]1c2ccc(O)cc2CC[C@H]1c1ccccc1` (single isomer, unassigned) [III-312], the GI50 in experiment [1] (setting [4]), in experiment [2] (setting [5]) and in experiment [3] (setting [6]) was 50 to 500 nM each time.
In the case of `COc1cc(N2CCN(CC3(O)CCN(c4ccc(C5=N[C@@H](C)c6nnc(C)n6-c6sc(C)c(C)c65)c(F)c4)CC3)CC2)ccc1[C@H]1c2ccc(O)cc2CC[C@H]1c1cccc(F)c1` (single isomer, unassigned) [III-343], the concentration for 50% growth inhibition (GI50) in experiment [1] (setting [4]) is 50 to 500 nM; in experiment [2] (setting [5]), 50 to 500 nM; in experiment [3] (setting [6]) it was under 50 nM.
In the case of `COc1cc(N2CCN(CC3(O)CCN(c4ccc(C5=N[C@@H](C)c6nnc(C)n6-c6sc(C)c(C)c65)c(F)c4)CC3)CC2)ccc1[C@@H]1c2ccc(O)cc2CC[C@@H]1c1cccc(F)c1` (single isomer, unassigned) [III-344], the results for the GI50 in experiment [1] (setting [4]), in experiment [2] (setting [5]) and in experiment [3] (setting [6]) were under 50 nM, 500 to 2500 nM and under 50 nM, respectively.
For `CCN(CCCCNC(=O)C[C@@H]1N=C(c2ccc(Cl)cc2)c2c(sc(C)c2C)-n2c(C)nnc21)CCOc1ccc(C(=O)c2c(-c3ccc(O)cc3)sc3cc(O)ccc23)cc1` [I-1, (S)-2-(4-(4-chlorophenyl)-2,3,9-trimethyl-6H-thieno[3,2-f][1,2,4]triazolo[4,3-a][1,4]diazepin-6-yl)-N-(4-(ethyl(2-(4-(6-hydroxy-2-(4-hydroxyphenyl)benzo[b]thiophene-3-carbonyl)phenoxy)ethyl)amino)butyl) acetamide], the GI50 in experiment [1] (setting [7]), in experiment [2] (setting [8]) and in experiment [3] (setting [6]) was 50 to 500 nM each time.
As for `CCN(CCOCCOCCOCCOCCNC(=O)C[C@@H]1N=C(c2ccc(Cl)cc2)c2c(sc(C)c2C)-n2c(C)nnc21)CCOc1ccc(C(=O)c2c(-c3ccc(O)cc3)sc3cc(O)ccc23)cc1` [I-4, (S)-2-(4-(4-chlorophenyl)-2,3,9-trimethyl-6H-thieno[3,2-f][1,2,4]triazolo[4,3-a][1,4]diazepin-6-yl)-N-(3-ethyl-1-(4-(6-hydroxy-2-(4-hydroxyphenyl)benzo[b]thiophene-3-carbonyl)phenoxy)-6,9,12,15-tetraoxa-3-azaheptadecan-17-yl) acetamide], the GI50 is under 50 nM in experiment [1] (setting [7]), 500 to 2500 nM in experiment [2] (setting [8]) and 50 to 500 nM in experiment [3] (setting [6]).
The matching figures for `CCN(CCOCCOCCOCCOCCOCCOCCNC(=O)C[C@@H]1N=C(c2ccc(Cl)cc2)c2c(sc(C)c2C)-n2c(C)nnc21)CCOc1ccc(C(=O)c2c(-c3ccc(O)cc3)sc3cc(O)ccc23)cc1` [I-5, (S)-2-(4-(4-chlorophenyl)-2,3,9-trimethyl-6H-thieno[3,2-f][1,2,4]triazolo[4,3-a][1,4]diazepin-6-yl)-N-(3-ethyl-1-(4-(6-hydroxy-2-(4-hydroxyphenyl)benzo[b]thiophene-3-carbonyl)phenoxy)-6,9,12,15,18,21-hexaoxa-3-azatricosan-23-yl) acetamide]: under 50 nM, 500 to 2500 nM and 50 to 500 nM.
For `Cc1sc2c(c1C)C(c1ccc(N3CCN(c4ccc([C@@H]5c6ccc7n[nH]cc7c6C[C@@H](C)N5CC(F)(F)F)nc4)CC3)cc1)=N[C@@H](C)c1nnc(C)n1-2` [I-7, (S)-2,3,6,9-tetramethyl-4-(4-(4-(6-((6S,8R)-8-methyl-7-(2,2,2-trifluoroethyl)-6,7,8,9-tetrahydro-2H-pyrazolo[4,3-f]isoquinolin-6-yl)pyridin-3-yl)piperazin-1-yl)phenyl)-6H-thieno[3,2-f][1,2,4]triazolo[4,3-a][1,4]diazepine], the concentration for 50% growth inhibition (GI50) in experiment [1] (setting [9]), in experiment [2] (setting [10]) and in experiment [3] was 50 to 500 nM each time.
On to `CCN(Cc1ccc(C2CN(CC3(O)CCN(c4ccc(C5=N[C@@H](C)c6nnc(C)n6-c6sc(C)c(C)c65)cc4)CC3)C2)cc1)c1cc(OC)ccc1C1CCc2cc(O)ccc2C1` (stereo partly drawn) [I-8, 4-((3-(4-((ethyl(2-(6-hydroxy-1,2,3,4-tetrahydronaphthalen-2-yl)-5-methoxyphenyl)amino)methyl)phenyl)azetidin-1-yl)methyl)-1-(4-((S)-2,3,6,9-tetramethyl-6H-thieno[3,2-f][1,2,4]triazolo[4,3-a][1,4]diazepin-4-yl)phenyl)piperidin-4-ol], for which the GI50 in experiment [1] (setting [9]) was 50 to 500 nM; in experiment [2] (setting [10]), 50 to 500 nM; in experiment [3] it was under 50 nM.
Consider `Cc1sc2c(c1C)C(c1ccc(OCCCCC3CCN(CCOc4ccc(C(=O)c5c(-c6ccc(O)cc6)sc6cc(O)ccc56)cc4)CC3)cc1)=N[C@@H](Cc1ncco1)c1nnc(C)n1-2` [I-9, (S)-(6-hydroxy-2-(4-hydroxyphenyl)benzo[b]thiophen-3-yl)(4-(2-(4-(4-(4-(2,3,9-trimethyl-6-(oxazol-2-ylmethyl)-6H-thieno[3,2-f][1,2,4]triazolo[4,3-a][1,4]diazepin-4-yl)phenoxy)butyl)piperidin-1-yl)ethoxy)phenyl)methanone], for which the GI50 in experiment [1] (setting [7]) is under 50 nM; in experiment [2] (setting [8]), 50 to 500 nM; in experiment [3] (setting [6]), under 50 nM.

The values above are taken from patent publication US12558428B2, “Heterobifunctional compounds and their use in treating disease” (Halda Therapeutics OpCo, Inc., priority 2024, dated 2026).
